Measured values reported in patent US11547655B2, “Use of an extract of the pericarp of Nephelium lappaceum for hydrating the skin and/or mucous membranes” (BASF Beauty Care Solutions France S.A.S., priority 2017, dated 2023).

Test system: involucrin
Experiment: Involucrin synthesis in normal human keratinocytes, ELISA assay
Format: cell-based
Settings: for MEAN (% involucrin detected): relative to the control, n=3; for stimulation of involucrin synthesis: at the concentrations tested, corresponding to those present in the cosmetic ingredient of example 4
Method: Normal, that is to say non-pathological, human keratinocytes were cultured in an MCDB153 medium (Dutscher France) containing 2% of fetal calf serum. After culture for 3 days at 37° C., the growth medium was replaced with MCDB153 medium containing various final concentrations of extract of N. lappaceum (by weight relative to the total volume of the medium) or without extract (Control) (table 1). The culture medium was replaced then solubilized in an extraction buffer. The amount of involucrin was quantified by ELISA assay. The results obtained are expressed as % relative to the control (n=3) (MEAN: mean; SD: Standard deviation).
Normal, that is to say non-pathological, human keratinocytes were cultured in an MCDB153 medium (Dutscher France) containing 2% of fetal calf serum. After culture for 3 days at 37° C., the growth medium was replaced with MCDB153 medium containing two final concentrations of ellagic acid or of geranin (w/v final medium) or without ellagic acid or without geranin (Control) (table 3). The culture medium was replaced. The amount of involucrin was quantified by ELISA assay. The results obtained are expressed as % relative to the control (n=3).

Row | Compound | MEAN (% involucrin detected) (1.1 × 10^−4% (w/v medium)) [%] | MEAN (% involucrin detected) (1.9 × 10^−4% (w/v medium)) [%] | stimulation of involucrin synthesis | MEAN (% involucrin detected) (1.5 × 10^−3% (w/v medium)) [%] | MEAN (% involucrin detected) (9 × 10^−4% (w/v medium)) [%]
1 | O=c1oc2c(O)c(O)cc3c(=O)oc4c(O)c(O)cc1c4c23 [Ellagic acid, ellagic acid] | 68 | 32 | Neither ellagic acid nor geranin stimulated involucrin synthesis | – | –
2 | O=C1O[C@H]2[C@@H]3OC(=O)c4cc(O)c(O)c(O)c4-c4c(cc(O)c(O)c4O)C(=O)OC[C@H]2O[C@@H](OC(=O)c2cc(O)c(O)c(O)c2)[C@@H]3OC(=O)c2cc(O)c(O)c3c2[C@@H]2C1=CC(=O)[C@](O)(O3)C2(O)O [Geranin, geranin] | – | – | Neither ellagic acid nor geranin stimulated involucrin synthesis | 29 | 78
